In PubChem BioAssay AID1919006 (Molecular Pharmacology Branch, DTP, NCI, 2023):
One block for each compound: values may come before it.

System: 885512-296-R-J2-PDC complex spheroid growth, % test/control
Test: Anticancer human tumor 885512-296-R-J2-PDC patient-derived breast carcinoma cell line growth inhibition [AhR]
Settings: for IC50: curve of first compound; for viability, T/C: stronger effect = lower value
Procedure, shortened: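 Agents were dosed in half-log steps down from roughly clinical Cmax, or from 10 microM where Cmax was unknown, alone and with AhR antagonists. Read-out: percent test/control growth of tumor spheroids containing HUVEC and MSC stromal cells.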

[1] = second compound 0.1 µM, first compound 0.00949 µM
[2] = second compound 0.1 µM, first compound 0.03 µM
[3] = second compound 0.1 µM, first compound 0.0949 µM
[4] = second compound 0.1 µM, first compound 0.3 µM
[5] = second compound 0.316 µM, first compound 0.00949 µM
[6] = second compound 0.316 µM, first compound 0.03 µM
[7] = second compound 0.316 µM, first compound 0.0949 µM
[8] = second compound 0.316 µM, first compound 0.3 µM
[9] = second compound 1 µM, first compound 0.00949 µM
[10] = second compound 1 µM, first compound 0.03 µM
[11] = second compound 1 µM, first compound 0.0949 µM
[12] = second compound 1 µM, first compound 0.3 µM
[13] = second compound 3.16 µM, first compound 0.00949 µM
[14] = second compound 3.16 µM, first compound 0.03 µM
[15] = second compound 3.16 µM, first compound 0.0949 µM
[16] = second compound 3.16 µM, first compound 0.3 µM
[17] = second compound 10 µM, first compound 0.00949 µM
[18] = second compound 10 µM, first compound 0.03 µM
[19] = second compound 10 µM, first compound 0.0949 µM
[20] = second compound 10 µM, first compound 0.3 µM
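Further: spheroids exposed to compounds for seven days.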

IC50 (second compound 0.1 µM): 1870 nM
IC50 (second compound 0.316 µM): 1700 nM
IC50 (second compound 1 µM): 1790 nM
IC50 (second compound 3.16 µM): 1840 nM
IC50 (second compound 10 µM): 637 nM
SMILES: CC1COCCN1c1cc(C2(S(C)(=N)=O)CC2)nc(-c2ccnc3[nH]ccc23)n1 (stereo not given) + Cc1ccccc1N=Nc1ccc(NC(=O)c2ccnn2C)c(C)c1
viability, T/C (second compound 0.1 µM, first compound 0.0316 µM): 108%
viability, T/C (second compound 0.1 µM, first compound 0.1 µM): 102%
viability, T/C (second compound 0.1 µM, first compound 0.316 µM): 96.3%
viability, T/C (second compound 0.1 µM, first compound 1 µM): 87%
viability, T/C (second compound 0.1 µM, first compound 3.16 µM): 19%
viability, T/C (second compound 0.1 µM, first compound 10 µM): 4.98%
viability, T/C (second compound 0.316 µM, first compound 0.0316 µM): 103%
viability, T/C (second compound 0.316 µM, first compound 0.1 µM): 127%
viability, T/C (second compound 0.316 µM, first compound 0.316 µM): 106%
viability, T/C (second compound 0.316 µM, first compound 1 µM): 77.9%
viability, T/C (second compound 0.316 µM, first compound 3.16 µM): 17.9%
viability, T/C (second compound 0.316 µM, first compound 10 µM): 5.69%
viability, T/C (second compound 1 µM, first compound 0.0316 µM): 108%
viability, T/C (second compound 1 µM, first compound 0.1 µM): 117%
viability, T/C (second compound 1 µM, first compound 0.316 µM): 95%
viability, T/C (second compound 1 µM, first compound 1 µM): 83.6%
viability, T/C (second compound 1 µM, first compound 3.16 µM): 17.4%
viability, T/C (second compound 1 µM, first compound 10 µM): 5.01%
viability, T/C (second compound 3.16 µM, first compound 0.0316 µM): 90%
viability, T/C (second compound 3.16 µM, first compound 0.1 µM): 92%
viability, T/C (second compound 3.16 µM, first compound 0.316 µM): 97.6%
viability, T/C (second compound 3.16 µM, first compound 1 µM): 85.7%
viability, T/C (second compound 3.16 µM, first compound 3.16 µM): 17.9%
viability, T/C (second compound 3.16 µM, first compound 10 µM): 5.33%
viability, T/C (second compound 10 µM, first compound 0.0316 µM): 56.9%
viability, T/C (second compound 10 µM, first compound 0.1 µM): 53.3%
viability, T/C (second compound 10 µM, first compound 0.316 µM): 49.6%
viability, T/C (second compound 10 µM, first compound 1 µM): 48.2%
viability, T/C (second compound 10 µM, first compound 3.16 µM): 13.4%
viability, T/C (second compound 10 µM, first compound 10 µM): 5.82%

IC50 (second compound 0.1 µM): 206 nM
IC50 (second compound 0.316 µM): 182 nM
IC50 (second compound 1 µM): 189 nM
IC50 (second compound 3.16 µM): 262 nM
IC50 (second compound 10 µM): 88.2 nM
SMILES: Nc1ncn(C2CC(O)C(CO)S2)c(=O)n1 (stereo not given) + Cc1ccccc1N=Nc1ccc(NC(=O)c2ccnn2C)c(C)c1
viability, T/C (second compound 0.1 µM, first compound 0.000949 µM): 92.7%
viability, T/C (second compound 0.1 µM, first compound 0.003 µM): 114%
viability, T/C [1]: 106%
viability, T/C [2]: 97.3%
viability, T/C [3]: 70.5%
viability, T/C [4]: 40.2%
viability, T/C (second compound 0.316 µM, first compound 0.000949 µM): 121%
viability, T/C (second compound 0.316 µM, first compound 0.003 µM): 108%
viability, T/C [5]: 134%
viability, T/C [6]: 117%
viability, T/C [7]: 63%
viability, T/C [8]: 40%
viability, T/C (second compound 1 µM, first compound 0.000949 µM): 106%
viability, T/C (second compound 1 µM, first compound 0.003 µM): 131%
viability, T/C [9]: 135%
viability, T/C [10]: 116%
viability, T/C [11]: 62.3%
viability, T/C [12]: 41.8%
viability, T/C (second compound 3.16 µM, first compound 0.000949 µM): 96.9%
viability, T/C (second compound 3.16 µM, first compound 0.003 µM): 104%
viability, T/C [13]: 106%
viability, T/C [14]: 101%
viability, T/C [15]: 69%
viability, T/C [16]: 47.4%
viability, T/C (second compound 10 µM, first compound 0.000949 µM): 52.6%
viability, T/C (second compound 10 µM, first compound 0.003 µM): 50.1%
viability, T/C [17]: 57.8%
viability, T/C [18]: 61.1%
viability, T/C [19]: 46.2%
viability, T/C [20]: 33.3%

IC50 (second compound 0.1 µM): 72.9 nM
IC50 (second compound 0.316 µM): 71 nM
IC50 (second compound 1 µM): 68.1 nM
IC50 (second compound 3.16 µM): 64.8 nM
IC50 (second compound 10 µM): 40.4 nM
SMILES: O=C(C=Cn1cnc(-c2cc(C(F)(F)F)cc(C(F)(F)F)c2)n1)NNc1cnccn1 + Cc1ccccc1N=Nc1ccc(NC(=O)c2ccnn2C)c(C)c1
viability, T/C [1]: 111%
viability, T/C [2]: 113%
viability, T/C [3]: 31.6%
viability, T/C [4]: 4.42%
viability, T/C (second compound 0.1 µM, first compound 0.949 µM): 2.04%
viability, T/C (second compound 0.1 µM, first compound 3 µM): 0.74%
viability, T/C [5]: 114%
viability, T/C [6]: 121%
viability, T/C [7]: 27.2%
viability, T/C [8]: 4.07%
viability, T/C (second compound 0.316 µM, first compound 0.949 µM): 1.17%
viability, T/C (second compound 0.316 µM, first compound 3 µM): 0.77%
viability, T/C [9]: 118%
viability, T/C [10]: 115%
viability, T/C [11]: 23.7%
viability, T/C [12]: 4.28%
viability, T/C (second compound 1 µM, first compound 0.949 µM): 1.23%
viability, T/C (second compound 1 µM, first compound 3 µM): 1.12%
viability, T/C [13]: 99.1%
viability, T/C [14]: 89.9%
viability, T/C [15]: 30.1%
viability, T/C [16]: 4.05%
viability, T/C (second compound 3.16 µM, first compound 0.949 µM): 1.22%
viability, T/C (second compound 3.16 µM, first compound 3 µM): 0.73%
viability, T/C [17]: 54.6%
viability, T/C [18]: 64.4%
viability, T/C [19]: 22.7%
viability, T/C [20]: 3.99%
viability, T/C (second compound 10 µM, first compound 0.949 µM): 1.13%
viability, T/C (second compound 10 µM, first compound 3 µM): 0.63%
